Measured values taken from patent US11518758B2, “Heteroarylaminopyrimidine amide autophagy inhibitors and methods of use thereof” (Deciphera Pharmaceuticals, LLC, priority 2019, dated 2022).

How the values were obtained:
ULK1 kinase = target: T1, ULK1 kinase (Homo sapiens, UniProt O75385); assay: Biochemical assay for ULK1.2 (coupled pyruvate kinase/lactate dehydrogenase assay); conditions: 19 nM ULK1 (Eurofins), myelin basic protein, 1 mM ATP
T1 construct: purchased Eurofins 14-959
T1 sequence (O75385 with tags, fused parts or gaps): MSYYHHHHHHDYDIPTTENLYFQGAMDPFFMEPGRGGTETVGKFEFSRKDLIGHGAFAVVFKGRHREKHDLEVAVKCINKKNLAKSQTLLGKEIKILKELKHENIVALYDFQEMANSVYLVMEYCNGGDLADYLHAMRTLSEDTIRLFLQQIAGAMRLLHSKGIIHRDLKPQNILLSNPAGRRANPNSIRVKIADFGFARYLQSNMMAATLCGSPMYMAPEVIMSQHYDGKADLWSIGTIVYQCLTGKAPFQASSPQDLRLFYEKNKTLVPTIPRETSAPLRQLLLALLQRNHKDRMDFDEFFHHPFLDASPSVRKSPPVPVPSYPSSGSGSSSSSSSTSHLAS
Procedure, shortened: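 NADH-coupled PK/LDH read-out at 340 nm, run with 19 nM ULK1, 0.25 mg/mL myelin basic protein and 1 mM ATP. Buffer was 100 mM Tris pH 7.5 with 15 mM MgCl2 and 1% DMSO final. Monitoring was continuous for 6 hours at 30° C; rates from the 2-3 h window were converted to percent inhibition and fitted to a four-parameter curve for IC50.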

[1] = system: phospho-Serine 318 ATG13 (pATG13) in HCT-116 cells; assay: pATG13 levels of mutant KRas HCT-116 cells after treatment with ULK inhibitors in combination with trametinib (ELISA); format: cell-based, human
Experimental: Example 179. pATG13 Levels of Mutant KRas HCT-116 Cells after Treatment with ULK Inhibitors in Combination with Trametinib
HCT-116 human colon cancer cells (10000 cells/well) were added to a 384-well tissue-culture treated plate in 50 μL of pre-warmed DMEM medium supplemented with 10% characterized fetal bovine serum (Invitrogen, Carlsbad, Calif.), 100 units/mL penicillin G, and 100 μg/mL streptomycin and allowed to grow overnight at 37° C., 5% CO2, and 95% humidity. The following day, 10 μL of media containing trametinib or DMSO as a control was added to wells. The final concentration of trametinib in wells was 250 nM. A dose response of a test compound (0.6 μL per well) was added. DMSO (0.6 μL) was added to control wells. The plate was briefly shaken to mix wells and then incubated at 37° C. overnight. The next day, the media was aspirated and cells were washed with Dulbecco's Phosphate Buffered Saline (Gibco). Cells were lysed using MPER lysis buffer (Pierce, Rockford, Ill.) containing Halt Phosphatase and Protease Inhibitors (Pierce, Rockford, Ill.) and Phosphatase inhibitor cocktail 2 (Sigma, St. Louis, Mo.) at 4° C. for 10 minutes with shaking.
Cellular levels of phospho-Serine 318 ATG13 (pATG13) were measured via an ELISA method. Total ATG13 Antibody (Cell Signaling Cat #13273) was used to coat the wells. The plate was incubated at 4° C. overnight and washed with ELISA wash buffer (Biolegend Cat #421601). The wells were then blocked with assay diluent (Biolegend Cat #421203) for 1 hour at room temperature. Plate wells were washed with ELISA wash buffer. Cell lysate was added to wells and incubated at room temperature for 2 hours. Plate wells were washed with ELISA wash buffer. Biotinylated pS318-ATG13 antibody (Rockland Immunochemicals Cat #600-401-C49) was diluted in assay diluent and added to each well and incubated at room temperature for 1 hour. Plate wells were washed with ELISA wash buffer. Streptavidin linked to horseradish peroxidase (Thermo Fisher Cat #21140) was diluted in assay diluent and added to each well and incubated at room temperature for 1 hour. Plate wells were washed with ELISA wash buffer. High sensitivity TMB substrate (Biolegend Cat #421101) was added to each well and incubated at room temperature for 20 minutes. The reaction was stopped with 2N Sulfuric Acid. The plate was analyzed at on a plate reader measuring absorbance at 450 nm and 540 nm (background). Signal was calculated by first subtracting the background absorbance at 540 nm from the absorbance at 450 nm for each well. Next, the background corrected absorbance at 450 nm from blank wells was subtracted from test wells. Data was compared to control wells to determine % ATG13 phosphorylation. GraphPad Prism was used to calculate IC50 values.

ULK2 kinase = target: T2, ULK2 kinase (Homo sapiens, UniProt Q8IYT8); assay: Biochemical assay for ULK2 (coupled pyruvate kinase/lactate dehydrogenase assay); conditions: 9.7 nM ULK2 (Eurofins), myelin basic protein, 1 mM ATP; read-out: ULK2.2
T2 construct: purchased Eurofins 14-772
T2 sequence (Q8IYT8 with tags, fused parts or gaps): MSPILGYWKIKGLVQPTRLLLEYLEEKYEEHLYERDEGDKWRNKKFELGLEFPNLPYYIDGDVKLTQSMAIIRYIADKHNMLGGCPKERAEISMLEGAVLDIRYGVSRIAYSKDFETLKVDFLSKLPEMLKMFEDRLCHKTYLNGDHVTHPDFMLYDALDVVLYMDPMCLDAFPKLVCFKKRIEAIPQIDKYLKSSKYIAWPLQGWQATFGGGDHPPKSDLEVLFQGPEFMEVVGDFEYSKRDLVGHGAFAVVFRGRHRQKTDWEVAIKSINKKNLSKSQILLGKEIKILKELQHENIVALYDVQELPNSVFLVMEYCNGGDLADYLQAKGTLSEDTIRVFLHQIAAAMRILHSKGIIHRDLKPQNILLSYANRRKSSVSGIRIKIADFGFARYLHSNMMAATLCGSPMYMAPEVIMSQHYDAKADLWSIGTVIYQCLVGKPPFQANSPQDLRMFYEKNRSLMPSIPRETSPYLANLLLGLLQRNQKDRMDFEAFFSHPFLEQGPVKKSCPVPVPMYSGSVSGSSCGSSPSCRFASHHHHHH
Experimental: Example 176. Biochemical Assay for ULK2
Activity of ULK2 kinase was determined spectroscopically using a coupled pyruvate kinase/lactate dehydrogenase assay that continuously monitors the ATP hydrolysis-dependent oxidation of NADH (e.g., Schindler et al. Science (2000) 289: 1938-1942). Assays were conducted in 384-well plates (100 uL final volume) using 9.7 nM ULK2 (Eurofins CAT #14-772), 0.25 mg/mL myelin basic protein, 1.5 units pyruvate kinase, 2.1 units lactate dehydrogenase, 1 mM phosphoenol pyruvate, 0.28 mM NADH and 1 mM ATP in assay buffer (100 mM Tris, pH 7.5, 15 mM MgCl2, 0.5 mM DTT, 0.1% octyl-glucoside, 0.002% (w/v) BSA, and 0.002% Triton X-100). Inhibition of ULK2 was measured by adding serial diluted test compound (final assay concentration of 1% DMSO). A decrease in absorption at 340 nm was monitored continuously for 6 hours at 30° C. on a multi-mode microplate reader (BioTek). The reaction rate was calculated using the 2-3 h time frame. The reaction rate at each concentration of compound was converted to percent inhibition using controls (i.e. reaction with no test compound and reaction with a known inhibitor) and IC50 values were calculated by fitting a four-parameter sigmoidal curve to the data using Prism (GraphPad software).

SMILES	IC50 (ULK1 kinase)	IC50 [1]	IC50 (ULK2 kinase)
CCc1nn(C2CCN(C)CC2)cc1Nc1ncc(Br)c(NCCCN2CCCCC2=O)n1 [Example 53]	25 to 100 nM	10 to 100 nM	100 to 500 nM
CN(C)CCn1cc(Nc2ncc(C(F)(F)F)c(NCCCN3CCCCC3=O)n2)cn1 [Example 32]	25 to 100 nM	10 to 100 nM	100 to 500 nM
Cc1nn(C2CCN(C)CC2)cc1Nc1ncc(C(F)(F)F)c(NCCCN2CCCCC2=O)n1 [Example 8]	1 to 25 nM	–	25 to 100 nM
Cc1nn(CCN(C)C)cc1Nc1ncc(C(F)(F)F)c(NCCCN2CCCCC2=O)n1 [Example 21]	25 to 100 nM	100 to 300 nM	100 to 500 nM
CC(C)N1CCC(n2cc(Nc3ncc(C(F)(F)F)c(NCCCN4CCCCC4=O)n3)cn2)CC1 [Example 6]	1 to 25 nM	100 to 300 nM	25 to 100 nM
Cc1nn([C@H]2CCN(C)C2)cc1Nc1ncc(Br)c(NCCCN2CCCCC2=O)n1 [Example 61]	25 to 100 nM	10 to 100 nM	100 to 500 nM
Cc1nn(C2CCN(C(C)C)CC2)cc1Nc1ncc(C(F)(F)F)c(NCCCN2CCCCC2=O)n1 [Example 15]	25 to 100 nM	10 to 100 nM	100 to 500 nM
Cc1nn([C@@H]2CCN(C)C2)cc1Nc1ncc(C(F)(F)F)c(NCCCN2CCCCC2=O)n1 [Example 18]	1 to 25 nM	–	25 to 100 nM
CCN1CC[C@H](n2cc(Nc3ncc(Br)c(NCCCN4CCCCC4=O)n3)c(C)n2)C1 [Example 64]	25 to 100 nM	–	> 500 nM
Cc1nn(C2CCN(C(C)C)CC2)cc1Nc1ncc(C(F)(F)F)c(NCCCN2CCCOC2=O)n1 [Example 68]	25 to 100 nM	10 to 100 nM	100 to 500 nM

Now from value to compound:

IC50 (ULK1 kinase)	IC50 [1]	IC50 (ULK2 kinase)	SMILES
1 to 25 nM	100 to 300 nM	100 to 500 nM	Cc1nn(C2CCN(C)CC2)cc1Nc1ncc(C(F)(F)F)c(NCCCN2CCOCCC2=O)n1 [Example 127]
25 to 100 nM	100 to 300 nM	> 500 nM	Cc1nn(C2CCN(C)CC2)cc1Nc1ncc(Cl)c(NCCCN2CCCOCC2=O)n1 [Example 105]
25 to 100 nM	100 to 300 nM	100 to 500 nM	Cc1nn(CCCN2CCOCC2)cc1Nc1ncc(C(F)(F)F)c(NCCCN2CCCCCC2=O)n1 [Example 100]
1 to 25 nM	10 to 100 nM	1 to 25 nM	Cc1nn(C2CCN(C)CC2)cc1Nc1ncc(C(F)(F)F)c(NCCCN2CCCCCC2=O)n1 [Example 79]
25 to 100 nM	10 to 100 nM	100 to 500 nM	CCN1CCC(n2cc(Nc3ncc(C(F)(F)F)c(NCCCN4CCCOCC4=O)n3)c(C)n2)CC1 [Example 107]
1 to 25 nM	10 to 100 nM	25 to 100 nM	Cc1nn(C2CCN(C)CC2)cc1Nc1ncc(C(F)(F)F)c(NCCCN2CCCOCC2=O)n1 [Example 102]
25 to 100 nM	10 to 100 nM	100 to 500 nM	Cc1nn([C@@H]2CCN(C)C2)cc1Nc1ncc(C(F)(F)F)c(NCCCN2CCCOCC2=O)n1 [Example 106]
25 to 100 nM	10 to 100 nM	100 to 500 nM	CCN1CCC(n2cc(Nc3ncc(C(F)(F)F)c(NCCCN4CCOCCC4=O)n3)c(C)n2)CC1 [Example 130]
25 to 100 nM	100 to 300 nM	> 500 nM	Cc1nn(C2CCN(C(C)C)CC2)cc1Nc1ncc(C(F)(F)F)c(NCCCN2CCCOCC2=O)n1 [Example 108]
25 to 100 nM	100 to 300 nM	> 500 nM	Cc1nn(C2CCN(C(C)C)CC2)cc1Nc1ncc(C(F)(F)F)c(NCCCN2CCOCCC2=O)n1 [Example 131]
